Assay results published in US20160212997A1, “AGRICULTURAL CHEMICALS” (REDAG CROP PROTECTION LTD, priority 2013, published 2016).
Read-outs that look alike come from different tables or passages of the source.

Key:
Assay type in all cases: in vivo
[1] = test system: caterpillars, a mixture of Mamestra brassicae and Lacanobia oleracea; experiment: Potter tower spray on caterpillars, knockdown and mortality; details: Caterpillars, read-out: Average of % corrected affected; for pest or weed control at 0.1 % strength: 0.1 % w/v; for pest or weed control at 0.00625 % strength: 0.00625 % w/v; for pest or weed control at 0.0125 % strength: 0.0125 % w/v; for pest or weed control at 0.025 % strength: 0.025 % w/v; for pest or weed control at 0.05 % strength: 0.05 % w/v
Summary of the method: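 Mixed Mamestra brassicae and Lacanobia oleracea larvae (ten per dish, on leaf disc over damp cotton wool) sprayed directly with a Potter tower at five concentrations in DMSO containing 1% v/v Tween 20, alongside carrier-only and untreated controls. Knockdown and mortality scored at 24 and 48 h post treatment; five replicates per treatment.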

[2] = test system: red spider mites, Tetranychus urticae; experiment: Potter tower spray on red spider mites, knockdown and mortality; details: for percentage control: Spider mites; for activity against spider mites compared with the reference compound: versus flupyradifurone or sulfoxaflor respectively, tables 1 and 3
From the text: The compounds were screened for insecticidal efficacy against aphids, Myzus persicae, Cabbage moth, Mamestra brassicae, diamond black moths, Plutella xylostella, red spider mites, Tetranychus urticae, whitefly, Trialeurodes vaporariorum, in terms of knockdown and mortality.
Myzus persicae, Cabbage moth, Mamestra brassicae, diamond back moths, Plutella xylostella, red spider mites, Tetranychus urticae, whitefly, Trialeurodes vaporariorum, were obtained from specified laboratory cultures. Mixed sex and age aphids and mites, moth larvae and whitefly scale infested leaves were used in the experiments. Environmental conditions were closely monitored and recorded and were within the optimal range of the target species.
The compounds were screened at a range of five concentrations, diluted in DMSO. Some of the compounds were screened against aphids, whitefly and red spider mites and other compounds were screened against cabbage moth, and diamond black moths. A carrier only and an untreated control will also be conducted. Treatments were applied directly onto the insects within Petri dishes, using a potter tower.
Twenty mites and ten aphids, scales and moth larvae were placed within a Petri dish, lined with a suitable leaf disc on a damp cotton wool pad. Scales were already on leaves. The Petri dishes were then sprayed using a potter tower. The number of knocked down and anthropods were assessed at 24 and 48 hours post treatment. Five replicates were be performed for each treatment, for each species.

aphids, Myzus persicae = experiment: Potter tower spray on aphids, knockdown and mortality; details: Aphids; for pest or weed control at 0.1 % strength: Myzus persicae, 0.1 % w/v, read-out: Average of % corrected affected
Summary of the method: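 Ten aphids (mixed sex and age) per Petri dish on a leaf disc were sprayed by Potter tower with compounds at five concentrations in DMSO. Knockdown and mortality were scored at 24 and 48 hours, five replicates per treatment, alongside carrier-only and untreated controls.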

[3] = 24 h, 24 hours post application
[4] = 48 h, 48 hours post application

| Compound | pest or weed control at 0.1 % strength [1, 3] [%] | pest or weed control at 0.00625 % strength [1, 4] [%] | pest or weed control at 0.0125 % strength [1, 4] [%] | pest or weed control at 0.025 % strength [1, 4] [%] | pest or weed control at 0.05 % strength [1, 4] [%] | pest or weed control at 0.1 % strength [1, 4] [%] | percentage control ([2]; 12.5 g/ha, 24 h) | percentage control ([2]; 12.5 g/ha, 48 h) | percentage control ([2]; 25 g/ha, 24 h) | percentage control ([2]; 25 g/ha, 48 h) | percentage control ([2]; 50 g/ha, 24 h) | percentage control ([2]; 50 g/ha, 48 h) | percentage control ([2]; 100 g/ha, 24 h) | percentage control ([2]; 100 g/ha, 48 h) | percentage control ([2]; 200 g/ha, 24 h) | percentage control ([2]; 200 g/ha, 48 h) | activity against spider mites compared with the reference compound [2] | percentage control (aphids, Myzus persicae; 12.5 g/ha, 24 h) | percentage control (aphids, Myzus persicae; 12.5 g/ha, 48 h) | percentage control (aphids, Myzus persicae; 25 g/ha, 24 h) | further results |
| --- | --- | --- | --- | --- | --- | --- | --- | --- | --- | --- | --- | --- | --- | --- | --- | --- | --- | --- | --- | --- | --- |
| CC(=O)N=S(C)(=O)C(C)c1ccc(C(F)(F)F)nc1 (stereo not drawn) [Compound 12, N-[Methyl-oxo-[1-[6-(trifluoromethyl)-3-pyridyl]ethyl]-λ^6-sulfanylidene]acetamide] | 1 to 19 | 1 to 19 | 1 to 19 | 1 to 19 | 1 to 19 | 1 to 19 | D (A percentage control of from 20 to 39 is indicated by the letter D) | D (A percentage control of from 20 to 39 is indicated by the letter D) | D (A percentage control of from 20 to 39 is indicated by the letter D) | D (A percentage control of from 20 to 39 is indicated by the letter D) | C (A percentage control of from 40 to 59 is indicated by the letter C) | C (A percentage control of from 40 to 59 is indicated by the letter C) | B (A percentage control of from 60 to 79 is indicated by the letter B) | B (A percentage control of from 60 to 79 is indicated by the letter B) | B (A percentage control of from 60 to 79 is indicated by the letter B) | A (A percentage control of from 80 to 100 is indicated by the letter A) | more active than the reference compound | E (A percentage control of from 1 to 19 is indicated by the letter E) | D (A percentage control of from 20 to 39 is indicated by the letter D) | E (A percentage control of from 1 to 19 is indicated by the letter E) | percentage control (aphids, Myzus persicae; 25 g/ha, 48 h): D (A percentage control of from 20 to 39 is indicated by the letter D); percentage control (aphids, Myzus persicae; 50 g/ha, 24 h): E (A percentage control of from 1 to 19 is indicated by the letter E); percentage control (aphids, Myzus persicae; 50 g/ha, 48 h): C (A percentage control of from 40 to 59 is indicated by the letter C); percentage control (aphids, Myzus persicae; 100 g/ha, 24 h): E (A percentage control of from 1 to 19 is indicated by the letter E); percentage control (aphids, Myzus persicae; 100 g/ha, 48 h): D (A percentage control of from 20 to 39 is indicated by the letter D); percentage control (aphids, Myzus persicae; 200 g/ha, 24 h): E (A percentage control of from 1 to 19 is indicated by the letter E); percentage control (aphids, Myzus persicae; 200 g/ha, 48 h): D (A percentage control of from 20 to 39 is indicated by the letter D); pest or weed control at 0.1 % strength (aphids, Myzus persicae; [3]): 20 to 39%; pest or weed control at 0.1 % strength (aphids, Myzus persicae; [4]): 40 to 59% |
| COC(=O)N=S(C)(=O)C(C)c1ccc(C(F)(F)F)nc1 (stereo not drawn) [Compound 13, Methyl N-[methyl-oxo-[1-[6-(trifluoromethyl)-3-pyridyl]ethyl]-λ^6-sulfanylidene]carbamate] | 1 to 19 | 1 to 19 | 1 to 19 | 1 to 19 | 1 to 19 | 20 to 39 | D (A percentage control of from 20 to 39 is indicated by the letter D) | B (A percentage control of from 60 to 79 is indicated by the letter B) | D (A percentage control of from 20 to 39 is indicated by the letter D) | C (A percentage control of from 40 to 59 is indicated by the letter C) | D (A percentage control of from 20 to 39 is indicated by the letter D) | B (A percentage control of from 60 to 79 is indicated by the letter B) | D (A percentage control of from 20 to 39 is indicated by the letter D) | B (A percentage control of from 60 to 79 is indicated by the letter B) | D (A percentage control of from 20 to 39 is indicated by the letter D) | B (A percentage control of from 60 to 79 is indicated by the letter B) | more active than the reference compound | E (A percentage control of from 1 to 19 is indicated by the letter E) | D (A percentage control of from 20 to 39 is indicated by the letter D) | E (A percentage control of from 1 to 19 is indicated by the letter E) | percentage control (aphids, Myzus persicae; 25 g/ha, 48 h): D (A percentage control of from 20 to 39 is indicated by the letter D); percentage control (aphids, Myzus persicae; 50 g/ha, 24 h): E (A percentage control of from 1 to 19 is indicated by the letter E); percentage control (aphids, Myzus persicae; 50 g/ha, 48 h): D (A percentage control of from 20 to 39 is indicated by the letter D); percentage control (aphids, Myzus persicae; 100 g/ha, 24 h): E (A percentage control of from 1 to 19 is indicated by the letter E); percentage control (aphids, Myzus persicae; 100 g/ha, 48 h): E (A percentage control of from 1 to 19 is indicated by the letter E); percentage control (aphids, Myzus persicae; 200 g/ha, 24 h): D (A percentage control of from 20 to 39 is indicated by the letter D); percentage control (aphids, Myzus persicae; 200 g/ha, 48 h): C (A percentage control of from 40 to 59 is indicated by the letter C); pest or weed control at 0.1 % strength (aphids, Myzus persicae; [3]): 20 to 39%; pest or weed control at 0.1 % strength (aphids, Myzus persicae; [4]): 20 to 39% |
| CC(c1ccc(C(F)(F)F)nc1)S(C)(=O)=NS(C)(=O)=O (stereo not drawn) [Compound 14, N-[methyl-oxo-[1-[6-(trifluoromethyl)-3-pyridyl]ethyl]-λ^6-sulfanylidene]methane-sulfonamide] | 1 to 19 | 1 to 19 | 1 to 19 | 1 to 19 | 1 to 19 | 1 to 19 | D (A percentage control of from 20 to 39 is indicated by the letter D) | C (A percentage control of from 40 to 59 is indicated by the letter C) | C (A percentage control of from 40 to 59 is indicated by the letter C) | C (A percentage control of from 40 to 59 is indicated by the letter C) | D (A percentage control of from 20 to 39 is indicated by the letter D) | C (A percentage control of from 40 to 59 is indicated by the letter C) | C (A percentage control of from 40 to 59 is indicated by the letter C) | B (A percentage control of from 60 to 79 is indicated by the letter B) | B (A percentage control of from 60 to 79 is indicated by the letter B) | B (A percentage control of from 60 to 79 is indicated by the letter B) | more active than the reference compound | E (A percentage control of from 1 to 19 is indicated by the letter E) | D (A percentage control of from 20 to 39 is indicated by the letter D) | E (A percentage control of from 1 to 19 is indicated by the letter E) | percentage control (aphids, Myzus persicae; 25 g/ha, 48 h): E (A percentage control of from 1 to 19 is indicated by the letter E); percentage control (aphids, Myzus persicae; 50 g/ha, 24 h): E (A percentage control of from 1 to 19 is indicated by the letter E); percentage control (aphids, Myzus persicae; 50 g/ha, 48 h): D (A percentage control of from 20 to 39 is indicated by the letter D); percentage control (aphids, Myzus persicae; 100 g/ha, 24 h): E (A percentage control of from 1 to 19 is indicated by the letter E); percentage control (aphids, Myzus persicae; 100 g/ha, 48 h): D (A percentage control of from 20 to 39 is indicated by the letter D); percentage control (aphids, Myzus persicae; 200 g/ha, 24 h): E (A percentage control of from 1 to 19 is indicated by the letter E); percentage control (aphids, Myzus persicae; 200 g/ha, 48 h): D (A percentage control of from 20 to 39 is indicated by the letter D); pest or weed control at 0.1 % strength (aphids, Myzus persicae; [3]): 20 to 39%; pest or weed control at 0.1 % strength (aphids, Myzus persicae; [4]): 20 to 39% |
